Reference: patent publication US9517267B2, “Photodynamic diagnostic agent and photobleaching inhibitor” (SBI Pharmaceuticals Co., Ltd., priority 2012, dated 2016)
“Also recorded” adds a separate entry of the source.

Columns and labels:
[1] = tested on: PpIX in MKN45 cells; experiment: Photobleaching inhibitory effect for PpIX produced from ALA in cells with gallic acids or other reductants (Example 1); assay type: cell-based; settings: excitation 400 nm, fluorescence 635 nm; for photobleaching inhibitory effect for PpIX: 1 mM ALA 24 h, reductant in 50% glycerol PBS (NPG 2%, PPD 0.5%, DABCO 5%, Prolong Gold as sold), 0-180 s
Protocol: (§1) MKN45 cells were seeded in a 35 mm dish at 0.5×10^6 cells, and the culture medium on the 35 mm dish was 2 mL. Ten μL of 0.2 M ALA hydrochloride (5-aminolevulinic acid hydrochloride) solution was added to the 2 mL of culture medium in the 35 mm dish to achieve the final concentration of ALA in the culture medium at 1 mM. This 35 mm dish was cultured in a 5% CO2 incubator at 37° C. for 24 hours. The cells were then washed with 1 ml of PBS, 1 mL of each of the following reductant solutions (dissolved in 50% glycerol PBS solution) were added on ice, the cells were immediately scraped off with a cell scraper, and the cells were suspended by pipetting. The fluorescence intensity at 635 nm of each of these cell suspensions under the excitation light at 400 nm was measured. The fluorescence intensity was measured from 0 seconds post irradiation of excitation light for every 10 seconds until 180 seconds post irradiation. Not limited to Example 1, the measurement of fluorescence intensity was performed with irradiation of the excitation light even after the 0 seconds post irradiation of excitation light.
The following were employed at the following final concentrations as each reductant:
Paraphenylenediamine (hereinafter abbreviated as “PPD”): 0.5%
n-propyl gallate (hereinafter abbreviated as “NPG”): 2%
1-4-diazabicyclo[2.2.2]-octane (hereinafter abbreviated as “DABCO”): 5%
Prolong Gold™: approximately 1% as the active ingredient sodium azide
Since Prolong Gold (an anti-fade agent from Invitrogen) was sold as a solution containing approximately 1% of sodium azide, it was added directly as the commercially available solution without employing 50% glycerol/PBS to carry out the investigation.

[2] = Photobleaching inhibitory effect for porphyrins by each alkyl gallate in solution (Example 4); assay type: physicochemical; settings: 50 mM alkyl gallate, 1 μM PpIX; for t/2 of PpIX fluorescence intensity: excitation 402 nm, 0.4 mA, pseudo-first-order
Protocol: The photobleaching inhibitory effect for porphyrins by gallic acids was measured with the following procedure. Methyl gallate (MeG, from Wako, Cat. No. 134-09812), butyl gallate (BuG, from Wako, Cat. No. 322-67472), n-propyl gallate (PrG, from Wako, Cat. No. 162-06832), and octyl gallate (OcG, from Wako, Cat. No. 322-56482) were employed as gallic acids. The gallic acids employed here are all compounds having a linear alkyl.
(§2) (1) In order to prepare 50 mM solutions of each alkyl gallate, 0.3 mmol of each alkyl gallate was placed in a 15 mL tube, and 6 mL of 50% glycerol PBS solution (a mixture of glycerol and PBS at a proportion of 1:1, hereinafter may be notated as “Gly+PBS” or “Gly+PBS solution”) or DMSO was added and dissolved.
(3) After dispensing 990 μL of alkyl gallate into a 2 mL vial, 10 μL of 100 μM PpIX was added (final concentration of PpIX at 1 μM).
(4) Measurement of the fluorescence spectrum was performed for each alkyl gallate+PpIX solution prepared in (3) with a simplified fluorescence measurement device. LED was employed as the light source, the wavelength of the excitation light employed was 402 nm, the output current was set at 0.4 mA, and the measurement interval was every 10 seconds until 180 seconds for measurement.
For each of the plots above in FIG. 14 and FIG. 15 when a Gly+PBS solution and a DMSO solution was employed as the solvent for gallic acid, the relative fluorescence intensity was calculated by setting the fluorescence intensity immediately post irradiation (0 seconds later) as 1, and the transition of fluorescence intensity of PpIX was plotted with the calculated relative intensity as the vertical axis as shown in FIG. 16 and FIG. 17, respectively. This transition of relative fluorescence intensity was treated as a pseudo-first-order reaction to determine the half-life, and shown in Table 2 and Table 3, respectively.

[3] = tested on: PpIX in MKN45 cells; experiment: Photobleaching inhibitory effect for PpIX produced from ALA in cells with other reductants (Example 2); assay type: cell-based; settings: 1 mM ALA 24 h, ascorbic acid 500 μM, tocopherol 500 μM, lutein 10 μM in PBS, excitation 400 nm, fluorescence 635 nm, 0-180 s
Protocol: Photobleaching suppression effect for PpIX was measured for other reductants. The following were employed as the reductants. Each reductant solution was prepared by the following method and each of the prepared solutions was used as sample solvents for photobleaching measuring.
Solution supplemented with 5 μL of ascorbic acid (solvent: milli Q, concentration of supplemented solution: 100 mM) was added to 1 mL of PBS to prepare an ascorbic acid solution having a final concentration of 500 μM.
Solution supplemented with 5 μL of tocopherol (solvent: DMSO, concentration of supplemented solution: 100 mM) was added to 1 mL of PBS to prepare a tocopherol solution having a final concentration of 500 μM.
Solution supplemented with 5 μL of lutein (solvent: DMSO, concentration of supplemented solution: 2 mM) was added to 1 mL of PBS to prepare a lutein solution having a final concentration of 10 μM.
MKN45 cells were seeded in a 35 mm dish at 0.5×10^6 cells, and the culture medium on the 35 mm dish was 2 mL. Ten μL of 0.2 M ALA hydrochloride (5-aminolevulinic acid hydrochloride) solution was added to the 2 mL of culture medium in the 35 min dish to achieve the final concentration of ALA in the culture medium at 1 mM. This 35 mm dish was cultured in a 5% CO2 incubator at 37° C. for 24 hours. The cells were then washed with 1 ml of PBS, and then 1 mL of each of the reductant solutions prepared as above were added, the cells were immediately scraped off with a cell scraper, and the cells were suspended by pipetting. The fluorescence intensity at 635 nm of each of these cell suspensions under the excitation light at 400 nm was measured. The fluorescence intensity was measured from 0 seconds post irradiation of excitation light for every 10 seconds until 180 seconds post irradiation. The measurement of fluorescence intensity was performed with irradiation of the excitation light even after the 0 seconds post irradiation of excitation light.

[4] = Dissolution of alkyl gallates at 50 mM in Gly+PBS or DMSO; assay type: physicochemical; settings: for solubility in Gly+PBS solution: 0.3 mmol in 6 mL (50 mM) 50% glycerol PBS
Protocol: as §2

[5] = Absorption spectrum 350 nm-750 nm of alkyl gallate solutions; assay type: physicochemical; settings: 50 mM alkyl gallate solution
Protocol: (2) Measurement of the absorption spectrum at 350 nm-750 nm was performed with 1000 μL of each alkyl gallate solution prepared in (1).
Since the fluorescent substance protoporphyrin IX (PpIX) has a sharp absorbance at around 400 nm, and a light at around 400 nm is employed as the excitation light, it was deemed possible that excitation of PpIX could be inhibited when employing butyl gallate.

[6] = tested on: PpIX in MKN45 cells; experiment: PpIX fluorescence half-life in ALA-loaded cells with 1% NPG at varied excitation light intensity (Example 3); assay type: cell-based
Protocol: as §1
In a method similar to Example 1, 1 mL of 1% n-propyl gallic acid (NPG) solution was added, and the intensity of the excitation light was altered to 0.1 mA, 0.2 mA, 0.3 mA, and 0.4 mA to measure the fluorescence intensity.

[7] = Gly + PBS solution, fluorescence 627 nm

| Molecule | photobleaching inhibitory effect for PpIX [1] | fluorescence intensity of PpIX after 30 seconds and 60 seconds relative to 0 seconds ([2]; DMSO solution) | t/2 of PpIX fluorescence intensity ([2]; DMSO, fluorescence 632 nm) [s] | t/2 of PpIX fluorescence intensity [2, 7] [s] | fluorescence intensity of PpIX after 30 seconds and 60 seconds relative to 0 seconds ([2]; Gly+PBS solution) | effect of inhibiting photobleaching of PpIX [3] | further results |
| --- | --- | --- | --- | --- | --- | --- | --- |
| C1CN2CCN1CC2 [DABCO, 1-4-diazabicyclo[2.2.2]-octane] | insufficient; also recorded: no or almost no effect | – | – | – | – | – | – |
| COC(=O)c1cc(O)c(O)c(O)c1 [MeG, Methyl gallate] | – | only modestly reduced | 239.0 | 346.6 | only modestly reduced | – | – |
| CC1=C[C@H](O)CC(C)(C)[C@H]1/C=C/C(C)=C/C=C/C(C)=C/C=C/C=C(C)/C=C/C=C(C)/C=C/C1=C(C)C[C@@H](O)CC1(C)C [lutein] | – | – | – | – | – | do not have the effect of inhibiting photobleaching | – |
| Nc1ccc(N)cc1 [PPD, Paraphenylenediamine] | a state of high fluorescence intensity as with NPG could not be maintained; also recorded: no or almost no effect | – | – | – | – | – | fluorescence intensity at 0 seconds post irradiation of excitation light ([1]; 1 mM ALA, PPD 0.5%): markedly reduced |
| CCCCCCCCOC(=O)c1cc(O)c(O)c(O)c1 [OcG, octyl gallate] | – | only modestly reduced | 239.0 | – | – | – | solubility in Gly+PBS solution [4]: could not be dissolved |
| CCCCOC(=O)c1cc(O)c(O)c(O)c1 [BuG, butyl gallate] | – | only modestly reduced | 533.2 | 385.1 | only modestly reduced | – | solubility in Gly+PBS solution [4]: able to dissolve; solubility in DMSO ([4]; 0.3 mmol in 6 mL (50 mM) DMSO): able to dissolve; absorbance at around 400 nm [5]: found to have absorbance at around 400 nm |
| CCCOC(=O)c1cc(O)c(O)c(O)c1 [NPG, n-propyl gallate] | superior photobleaching inhibitory effect was observed | only modestly reduced | 231.0 | 239.0 | only modestly reduced | – | fluorescence intensity after 180 seconds post irradiation, relative to control at 0 seconds ([1]; 1 mM ALA, NPG 2%): about half; duration of fluorescence in fluorescence microscope images ([6]; 1% NPG vs vehicle, 0, 1, 2, 3 minutes post irradiation (FIG. 4)): fluorescence was maintained for a longer duration; prolongation of half-life versus vehicle ([6]; excitation light 0.4 mA, NPG 1%): three folds |
| O=C1O[C@H]([C@@H](O)CO)C(O)=C1O [ascorbic acid] | – | – | – | – | – | do not have the effect of inhibiting photobleaching; also recorded: no or almost no effect | – |
| tocopherol | – | – | – | – | – | do not have the effect of inhibiting photobleaching; also recorded: no or almost no effect | – |
